The record followed here is ChEMBL document CHEMBL1148869, “Synthesis and SAR studies of potent imidazopyridine anticoccidial agents” (Bioorg Med Chem Lett, 2007).

SMILES strings stand for the structures. A value given as a limit tells only on which side of the number the result lay.

For test [1], the target named is cGMP-dependent protein kinase (Eimeria tenella, UniProt Q8MMZ8). As to the kind of experiment: Inhibition of Et-PKG.
Test [2] relates to Eimeria acervulina. Put plainly: Anticoccidial activity against Eimeria acervulina infected Chick assessed as reduction in oocyst production at 50 ppm after 7 days. The class given is functional. Details: scale not given: the % may be the effect or the level left.
For test [3], the system named is Eimeria tenella. Put plainly: Anticoccidial activity against Eimeria tenella infected Chick assessed as reduction in oocyst production at 50 ppm after 7 days. The class given is functional. Details: scale not given: the % may be the effect or the level left.
Test [4] relates to Eimeria tenella. As to the kind of experiment: Anticoccidial activity against Eimeria tenella infected Chick assessed as reduction in oocyst production at 25ppm after 7 days. The class given is functional. Also on record: scale not given: the % may be the effect or the level left.
For test [5], the system named is Eimeria acervulina. Put plainly: Anticoccidial activity against Eimeria acervulina infected Chick assessed as reduction in oocyst production at 25 ppm after 7 days. The class given is functional. Details: scale not given: the % may be the effect or the level left.
For test [6], the system named is Eimeria tenella. As to the kind of experiment: Anticoccidial activity against Eimeria tenella infected Chick assessed as reduction in oocyst production at 12.5 ppm after 7 days. The class given is functional. Also on record: scale not given: the % may be the effect or the level left.
Test [7] relates to Eimeria acervulina. As to the kind of experiment: Anticoccidial activity against Eimeria acervulina infected Chick assessed as reduction in oocyst production at 12.5 ppm after 7 days. The class given is functional. Details: scale not given: the % may be the effect or the level left.

Chain of cGMP-dependent protein kinase (Q8MMZ8 whole entry): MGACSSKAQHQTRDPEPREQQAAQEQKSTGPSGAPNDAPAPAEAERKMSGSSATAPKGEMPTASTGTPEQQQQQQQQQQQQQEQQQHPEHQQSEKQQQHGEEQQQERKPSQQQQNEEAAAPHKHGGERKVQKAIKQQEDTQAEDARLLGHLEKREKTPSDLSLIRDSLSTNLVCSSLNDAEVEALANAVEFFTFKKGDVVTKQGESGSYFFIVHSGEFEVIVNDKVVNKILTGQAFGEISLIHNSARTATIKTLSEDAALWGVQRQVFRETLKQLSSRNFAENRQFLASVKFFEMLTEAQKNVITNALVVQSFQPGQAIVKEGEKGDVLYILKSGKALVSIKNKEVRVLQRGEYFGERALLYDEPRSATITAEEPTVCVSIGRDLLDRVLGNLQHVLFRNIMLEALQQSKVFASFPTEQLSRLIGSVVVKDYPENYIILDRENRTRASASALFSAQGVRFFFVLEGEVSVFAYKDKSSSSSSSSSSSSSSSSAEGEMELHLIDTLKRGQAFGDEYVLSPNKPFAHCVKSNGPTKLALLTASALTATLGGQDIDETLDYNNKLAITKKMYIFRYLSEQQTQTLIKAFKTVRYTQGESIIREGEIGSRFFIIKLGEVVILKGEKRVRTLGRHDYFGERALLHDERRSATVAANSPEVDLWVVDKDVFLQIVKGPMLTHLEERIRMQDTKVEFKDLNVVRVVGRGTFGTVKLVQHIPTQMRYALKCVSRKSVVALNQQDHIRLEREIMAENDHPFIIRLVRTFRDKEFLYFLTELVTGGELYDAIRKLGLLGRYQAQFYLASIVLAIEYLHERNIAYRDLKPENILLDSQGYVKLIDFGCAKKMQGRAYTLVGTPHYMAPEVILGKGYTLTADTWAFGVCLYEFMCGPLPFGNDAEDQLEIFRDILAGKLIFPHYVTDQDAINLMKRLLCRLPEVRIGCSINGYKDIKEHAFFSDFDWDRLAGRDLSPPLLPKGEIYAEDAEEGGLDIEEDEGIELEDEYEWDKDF

In general, IC50 refers to the concentration that gives 50% inhibition. In turn, `C[C@H](Nc1nccc(-c2c(-c3ccc(F)cc3)nc3cc(CN(C)CCN4CCC4)ccn23)n1)c1ccccc1` registered an IC50 in test [1] of 100 pM. Further, the Activity is <50% in the test on Eimeria acervulina [2] and >80% in the test on Eimeria tenella [3].

In test [1], `CN(C)Cc1ccn2c(-c3ccnc(NC(C)(C)C)n3)c(-c3ccc(F)cc3)nc2c1` gave an IC50 of 310 pM.

In test [1], `CC(C)NCc1ccn2c(-c3ccnc(N[C@@H](C)c4ccccc4)n3)c(-c3ccc(F)cc3)nc2c1` displayed an IC50 of 50 pM. In addition, the Activity in the test with Eimeria tenella [4] and in the test on Eimeria acervulina [5] was >80% in each case.

Consider `CCN(C)Cc1ccn2c(-c3ccnc(NCC(C)(C)C)n3)c(-c3ccc(F)cc3)nc2c1`, for which, in test [1], the IC50 stood at 290 pM. Further, the values for the Activity with Eimeria tenella [4] and in the test with Eimeria acervulina [5] were >80% and <50%, respectively.

`CC(C)Nc1nccc(-c2c(-c3ccc(F)cc3)nc3cc(CN(C)C)ccn23)n1` had an IC50 in test [1] of 200 pM. In addition, the Activity in the test with Eimeria tenella [4] and in the test on Eimeria acervulina [5] was >80% each time.

On to `C[C@H](Nc1nccc(-c2c(-c3ccc(F)cc3)nc3cc(CN(C)CCCN(C)C)ccn23)n1)c1ccccc1`, for which the Activity in the test with Eimeria tenella [6] is given as <50%; with Eimeria acervulina [7] it was 50%. Also, 70 pM corresponded to half-maximal inhibition in test [1] (IC50).

`CC(C)(C)CNc1nccc(-c2c(-c3ccc(F)cc3)nc3cc(CN4CCC4)ccn23)n1` had an IC50 in test [1] of 450 pM. For the same molecule, the Activity in the test on Eimeria tenella [4] and with Eimeria acervulina [5] was <0% throughout.

In test [1], `C[C@H](Nc1nccc(-c2c(-c3ccc(F)cc3)nc3cc(CN(C)CC(=O)N4CCC4)ccn23)n1)c1ccccc1` registered a half-maximal inhibitory concentration (IC50) of 570 pM. For the same molecule, the Activity with Eimeria acervulina [2] and in the test with Eimeria tenella [3] was <50% in each case.

Turning to `CC(C)N(C)Cc1ccn2c(-c3ccnc(NCC(C)(C)C)n3)c(-c3ccc(F)cc3)nc2c1`, in test [1], 600 pM corresponded to half-maximal inhibition (IC50). The Activity in the test with Eimeria tenella [4] and in the test on Eimeria acervulina [5] was <50% each time.

Regarding `CC(C)Nc1nccc(-c2c(-c3ccc(F)cc3)nc3cc(CN(C)C(C)C)ccn23)n1`, in test [1], half-maximal inhibition (IC50) was put at 1300 pM.

Consider `CCOC(=O)N1CCN(Cc2ccn3c(-c4ccnc(N[C@@H](C)c5ccccc5)n4)c(-c4ccc(F)cc4)nc3c2)CC1`, for which the IC50 in test [1] was 5600 pM. The Activity in the test with Eimeria acervulina [2] and in the test with Eimeria tenella [3] was <50% throughout.

In the case of `CC(C)N(C)Cc1ccn2c(-c3ccnc(N[C@@H](C)c4ccccc4)n3)c(-c3ccc(F)cc3)nc2c1`, in test [1], the concentration for half-maximal inhibition (IC50) was determined as 110 pM. In addition, the Activity with Eimeria tenella [4] was <50%; in the test with Eimeria acervulina [5], >80%.

Take `C[C@H](Nc1nccc(-c2c(-c3ccc(F)cc3)nc3cc(CN(C)CCO)ccn23)n1)c1ccccc1`: the IC50 in test [1] was found to be 110 pM. Moreover, the Activity in the test with Eimeria tenella [4] is >80%; in the test on Eimeria acervulina [5] it was <50%.

Turning to `C[C@H](Nc1nccc(-c2c(-c3ccc(F)cc3)nc3cc(CN(C)CC(=O)N4CCCC4)ccn23)n1)c1ccccc1`, the IC50 in test [1] turned out to be 390 pM. Besides, the Activity in the test on Eimeria acervulina [2] was <50%; with Eimeria tenella [3] it was >80%.

In the case of `CCN(C)Cc1ccn2c(-c3ccnc(N[C@@H](C)c4ccccc4)n3)c(-c3ccc(F)cc3)nc2c1`, it took 130 pM to reach half-maximal inhibition in test [1] (IC50). For the same molecule, the Activity with Eimeria acervulina [2] and in the test with Eimeria tenella [3] was >80% each time.

For `C[C@H](Nc1nccc(-c2c(-c3ccc(F)cc3)nc3cc(CN(C)C(CO)CO)ccn23)n1)c1ccccc1`, in test [1], the IC50 was determined as 150 pM. The Activity is reported as <50% in the test with Eimeria acervulina [2] and >80% with Eimeria tenella [3].

Consider `CN(C)Cc1ccn2c(-c3ccnc(NCC(C)(C)C)n3)c(-c3ccc(F)cc3)nc2c1`, for which the IC50 in test [1] amounted to 280 pM. Moreover, the Activity is >80% in the test with Eimeria tenella [4] and <50% in the test with Eimeria acervulina [5].

The molecule `CC(C)Nc1nccc(-c2c(-c3ccc(F)cc3)nc3cc(CN4CCC4)ccn23)n1` returned an IC50 in test [1] of 860 pM.

For `C[C@H](Nc1nccc(-c2c(-c3ccc(F)cc3)nc3cc(CN(C)CC4CCCO4)ccn23)n1)c1ccccc1` (stereo partly drawn), in test [1], it took 270 pM to reach half-maximal inhibition (IC50). The Activity in the test on Eimeria tenella [4] is >80%; in the test with Eimeria acervulina [5], <50%.

The molecule `C[C@H](Nc1nccc(-c2c(-c3ccc(F)cc3)nc3cc(CN(C)[C@@H](C)C(=O)N(C)C)ccn23)n1)c1ccccc1` had an IC50 in test [1] of 260 pM. Also, the Activity in the test on Eimeria tenella [4] and in the test with Eimeria acervulina [5] was 50% each time.

`CC(C)N(C)Cc1ccn2c(-c3ccnc(NC(C)(C)C)n3)c(-c3ccc(F)cc3)nc2c1` registered an IC50 in test [1] of 2800 pM.

For `C[C@H](Nc1nccc(-c2c(-c3ccc(F)cc3)nc3cc(CN(C)CCNS(C)(=O)=O)ccn23)n1)c1ccccc1`, the IC50 in test [1] is 150 pM. Besides, the Activity is given as >80% with Eimeria tenella [4] and <50% in the test on Eimeria acervulina [5].

As for `CN(C)Cc1ccn2c(-c3ccnc(NCc4ccccc4)n3)c(-c3ccc(F)cc3)nc2c1`, the Activity in the test with Eimeria tenella [4] and in the test on Eimeria acervulina [5] was >80% each time.

For the molecule `CN(C)Cc1ccn2c(-c3ccnc(Nc4ccccc4)n3)c(-c3ccc(F)cc3)nc2c1`, the Activity in the test on Eimeria tenella [6] is listed as >80%; with Eimeria acervulina [7], <50%. The same molecule returned a half-maximal inhibitory concentration (IC50) in test [1] of 60 pM.
